Source: publication PMC4581874 (PLoS ONE, 2015)

What was measured:
HUVECs [1] = assay: VEGF-induced endothelial proliferation assay; assay type: cell-based, human; conditions: VEGF 50 ng/mL, compound 1 μg/mL
Method: For the cell proliferation assays, cells were incubated overnight in endothelial basal media (EBM; Lonza, Walkersville, MD, USA) containing 0.5% FBS or supplemented with VEGF-A and/or VEGF inhibitors. The cells were washed with PBS and counted in 4 random microscope fields. The tube formation assay was performed by seeding cells on Matrigel-coated plates (BD Bioscience, Bedford, MA, USA) and incubating in EBM containing 0.5% FBS or supplemented with VEGF-A and/or VEGF inhibitors. After overnight incubation, tubule networks were quantified by measuring the tubule length in 4 random microscope fields. For the analysis of scratch wound migration, confluent cell monolayers grown on 6-well plates were scratched using a micropipette tip. After the plates were washed with PBS to remove dislodged cells and media, they were incubated with EBM containing 0.5% FBS or supplemented with VEGF and/or VEGF inhibitors for 8 hours. Cell migration was observed by optical microscopy and quantified by measuring the number of cells that had migrated from the wound edges.

PKCβII (h) = target: T1, PKCβII (h) (Homo sapiens, UniProt P05771); assay: Kinase profile, PKCβII; assay type: biochemical; conditions: mean ± S.D.
T1 construct: purchased Millipore (now Eurofins) KinaseProfiler / IC50 Profiler
Method: (§1) All kinase assays were carried out using KinaseProfiler^TM and IC50 Profiler^TM (Millipore UK Ltd., Dundee, UK. Now Eurofins Scientific, Dundee, UK). All IC50 data were presented as the mean values. The Curves obtained to determine IC50 values were shown in Supporting Information (S1 Fig).

cKit = target: T2, cKit (Homo sapiens, UniProt P10721); assay: In vitro kinase assay, cKit; assay type: biochemical
T2 construct: purchased Millipore UK Ltd., Dundee, UK (now Eurofins Scientific); KinaseProfiler / IC50 Profiler service
T2 sequence (P10721 26-976): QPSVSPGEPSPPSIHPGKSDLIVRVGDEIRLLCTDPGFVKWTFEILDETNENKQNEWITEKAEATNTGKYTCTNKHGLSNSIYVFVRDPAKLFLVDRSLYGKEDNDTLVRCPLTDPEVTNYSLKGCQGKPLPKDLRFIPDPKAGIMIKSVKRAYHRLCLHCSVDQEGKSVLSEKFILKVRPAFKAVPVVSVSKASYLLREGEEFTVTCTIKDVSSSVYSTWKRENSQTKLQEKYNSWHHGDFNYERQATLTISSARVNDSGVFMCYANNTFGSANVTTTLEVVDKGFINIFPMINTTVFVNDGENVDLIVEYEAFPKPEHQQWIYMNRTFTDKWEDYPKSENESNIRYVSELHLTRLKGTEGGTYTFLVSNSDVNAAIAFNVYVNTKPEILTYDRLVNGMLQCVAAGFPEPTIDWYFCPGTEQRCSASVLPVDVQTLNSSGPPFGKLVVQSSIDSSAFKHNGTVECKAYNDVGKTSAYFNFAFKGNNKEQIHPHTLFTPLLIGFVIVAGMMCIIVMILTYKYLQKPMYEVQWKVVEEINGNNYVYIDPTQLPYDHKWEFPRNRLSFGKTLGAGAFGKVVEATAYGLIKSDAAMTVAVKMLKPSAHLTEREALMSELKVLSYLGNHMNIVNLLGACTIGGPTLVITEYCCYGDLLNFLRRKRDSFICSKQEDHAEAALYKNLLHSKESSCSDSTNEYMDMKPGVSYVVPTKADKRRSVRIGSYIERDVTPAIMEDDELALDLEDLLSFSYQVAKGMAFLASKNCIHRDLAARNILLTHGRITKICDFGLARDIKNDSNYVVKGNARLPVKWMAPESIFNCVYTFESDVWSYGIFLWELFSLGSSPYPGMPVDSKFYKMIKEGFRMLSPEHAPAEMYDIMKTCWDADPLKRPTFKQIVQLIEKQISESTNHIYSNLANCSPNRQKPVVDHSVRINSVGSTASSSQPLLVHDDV
Method: as §1

PKG1β (h) = target: T3, PKG1β (h) (Homo sapiens, UniProt Q13976); assay: Kinase profile, PKG1β; assay type: biochemical; conditions: mean ± S.D.
T3 construct: purchased Millipore (now Eurofins) KinaseProfiler / IC50 Profiler
Method: as §1

PKBβ (h) = target: T4, PKBβ (h) (Homo sapiens, UniProt P31751); assay: Kinase profile, PKBβ; assay type: biochemical; conditions: mean ± S.D.
T4 construct: purchased Millipore (now Eurofins) KinaseProfiler / IC50 Profiler
Method: as §1

VEGFR-3 = target: T5, VEGFR-3 (Homo sapiens, UniProt P35916); assay: In vitro kinase assay, VEGFR-3; assay type: biochemical
T5 construct: purchased Millipore UK Ltd., Dundee, UK (now Eurofins Scientific); KinaseProfiler / IC50 Profiler service
T5 sequence (P35916 25-1363): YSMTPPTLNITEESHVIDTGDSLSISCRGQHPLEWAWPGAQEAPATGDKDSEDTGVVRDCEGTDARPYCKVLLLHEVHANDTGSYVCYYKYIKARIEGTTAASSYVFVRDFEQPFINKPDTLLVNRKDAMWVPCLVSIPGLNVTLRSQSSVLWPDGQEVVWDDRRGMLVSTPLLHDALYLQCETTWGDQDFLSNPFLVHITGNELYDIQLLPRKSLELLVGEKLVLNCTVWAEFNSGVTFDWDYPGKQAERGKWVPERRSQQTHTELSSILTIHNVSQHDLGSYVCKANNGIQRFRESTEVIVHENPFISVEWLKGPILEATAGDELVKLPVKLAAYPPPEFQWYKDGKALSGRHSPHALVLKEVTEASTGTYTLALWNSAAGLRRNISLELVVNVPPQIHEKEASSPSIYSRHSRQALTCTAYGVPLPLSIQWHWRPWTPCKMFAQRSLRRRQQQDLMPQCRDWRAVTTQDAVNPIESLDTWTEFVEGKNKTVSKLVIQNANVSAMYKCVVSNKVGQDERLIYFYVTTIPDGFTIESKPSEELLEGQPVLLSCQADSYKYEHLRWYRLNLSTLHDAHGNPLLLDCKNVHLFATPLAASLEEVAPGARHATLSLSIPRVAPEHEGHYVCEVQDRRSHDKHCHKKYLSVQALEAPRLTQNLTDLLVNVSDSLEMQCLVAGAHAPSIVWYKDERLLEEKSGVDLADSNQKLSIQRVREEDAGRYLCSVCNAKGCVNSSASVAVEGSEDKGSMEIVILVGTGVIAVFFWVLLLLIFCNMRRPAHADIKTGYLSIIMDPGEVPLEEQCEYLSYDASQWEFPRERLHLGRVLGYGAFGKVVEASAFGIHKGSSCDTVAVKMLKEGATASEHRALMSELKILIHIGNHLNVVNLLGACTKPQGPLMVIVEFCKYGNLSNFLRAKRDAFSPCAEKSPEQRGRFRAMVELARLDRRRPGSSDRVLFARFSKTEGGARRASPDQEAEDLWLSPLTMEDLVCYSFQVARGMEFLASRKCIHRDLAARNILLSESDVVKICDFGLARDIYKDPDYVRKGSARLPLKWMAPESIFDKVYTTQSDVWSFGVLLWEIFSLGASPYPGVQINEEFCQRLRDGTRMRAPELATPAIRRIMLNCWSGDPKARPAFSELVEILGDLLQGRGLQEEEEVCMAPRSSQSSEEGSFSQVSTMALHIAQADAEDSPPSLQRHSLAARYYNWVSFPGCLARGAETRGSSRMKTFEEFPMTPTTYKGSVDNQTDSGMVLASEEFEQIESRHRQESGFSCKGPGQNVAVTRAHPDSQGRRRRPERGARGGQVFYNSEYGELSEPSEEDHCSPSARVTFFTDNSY
Method: as §1

PKCα (h) = target: T6, PKCα (h) (Homo sapiens, UniProt P17252); assay: Kinase profile, PKCα; assay type: biochemical; conditions: mean ± S.D.
T6 construct: purchased Millipore (now Eurofins) KinaseProfiler / IC50 Profiler
Method: as §1

CDK7/cyclin H/MAT1 (h) = target: T7, CDK7/cyclin H/MAT1 (h) (Homo sapiens, UniProt P50613); assay: Kinase profile, CDK7/cyclin H/MAT1; assay type: biochemical; conditions: mean ± S.D.
T7 construct: purchased Millipore (now Eurofins) KinaseProfiler / IC50 Profiler
Method: as §1

IR (h) = target: T8, IR (h) (Homo sapiens, UniProt P06213); assay: Kinase profile, IR; assay type: biochemical; conditions: mean ± S.D.
T8 construct: purchased Millipore (now Eurofins) KinaseProfiler / IC50 Profiler
Method: as §1

AMPKα1 (h) = target: T9, AMPKα1 (h) (Homo sapiens, UniProt Q13131); assay: Kinase profile, AMPKα1; assay type: biochemical; conditions: mean ± S.D.
T9 construct: purchased Millipore (now Eurofins) KinaseProfiler / IC50 Profiler
Method: as §1

VEGFR-2 = target: T10, VEGFR-2 (Homo sapiens, UniProt P35968); assay: In vitro kinase assay, VEGFR-2; assay type: biochemical
T10 construct: purchased Millipore UK Ltd., Dundee, UK (now Eurofins Scientific); KinaseProfiler / IC50 Profiler service
Method: as §1

PKG1α (h) = target: T11, PKG1α (h) (Homo sapiens, UniProt Q13976); assay: Kinase profile, PKG1α; assay type: biochemical; conditions: mean ± S.D.
T11 construct: purchased Millipore (now Eurofins) KinaseProfiler / IC50 Profiler
Method: as §1

PKCε (h) = target: T12, PKCε (h) (Homo sapiens, UniProt Q02156); assay: Kinase profile, PKCε; assay type: biochemical; conditions: mean ± S.D.
T12 construct: purchased Millipore (now Eurofins) KinaseProfiler / IC50 Profiler
Method: as §1

PKCβI (h) = target: T13, PKCβI (h) (Homo sapiens, UniProt P05771); assay: Kinase profile, PKCβI; assay type: biochemical; conditions: mean ± S.D.
T13 construct: purchased Millipore (now Eurofins) KinaseProfiler / IC50 Profiler
Method: as §1

PDGFRα = target: T14, PDGFRα (Homo sapiens, UniProt P16234); assay: In vitro kinase assay, PDGFRα; assay type: biochemical
T14 construct: purchased Millipore UK Ltd., Dundee, UK (now Eurofins Scientific); KinaseProfiler / IC50 Profiler service
T14 sequence (P16234 24-1089): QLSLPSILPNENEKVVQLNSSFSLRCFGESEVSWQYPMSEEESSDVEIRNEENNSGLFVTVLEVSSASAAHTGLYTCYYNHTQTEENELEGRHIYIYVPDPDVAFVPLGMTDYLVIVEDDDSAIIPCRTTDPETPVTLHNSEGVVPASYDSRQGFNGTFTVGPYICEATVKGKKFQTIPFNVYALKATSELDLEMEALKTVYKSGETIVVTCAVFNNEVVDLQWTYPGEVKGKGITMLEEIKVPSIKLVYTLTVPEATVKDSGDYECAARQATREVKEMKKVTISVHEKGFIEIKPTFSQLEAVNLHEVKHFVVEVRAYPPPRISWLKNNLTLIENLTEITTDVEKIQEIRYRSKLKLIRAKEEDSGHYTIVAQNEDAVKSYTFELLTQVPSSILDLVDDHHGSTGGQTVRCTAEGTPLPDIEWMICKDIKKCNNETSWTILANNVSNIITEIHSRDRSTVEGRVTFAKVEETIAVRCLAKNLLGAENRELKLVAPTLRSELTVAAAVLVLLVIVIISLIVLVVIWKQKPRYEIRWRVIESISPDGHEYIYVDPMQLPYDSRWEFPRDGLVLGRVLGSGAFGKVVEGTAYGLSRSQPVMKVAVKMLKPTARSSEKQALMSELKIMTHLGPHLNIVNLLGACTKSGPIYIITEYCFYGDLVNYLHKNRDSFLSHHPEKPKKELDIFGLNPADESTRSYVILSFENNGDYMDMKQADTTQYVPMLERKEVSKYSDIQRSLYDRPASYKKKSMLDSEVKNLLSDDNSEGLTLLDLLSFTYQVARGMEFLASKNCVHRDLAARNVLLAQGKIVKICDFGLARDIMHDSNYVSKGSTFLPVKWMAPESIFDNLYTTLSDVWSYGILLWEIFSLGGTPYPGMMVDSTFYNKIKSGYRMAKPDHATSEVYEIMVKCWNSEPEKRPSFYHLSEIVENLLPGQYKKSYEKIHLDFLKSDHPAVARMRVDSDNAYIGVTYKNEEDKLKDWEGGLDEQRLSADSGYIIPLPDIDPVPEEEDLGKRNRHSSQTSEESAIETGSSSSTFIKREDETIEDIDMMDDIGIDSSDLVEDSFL
Method: as §1

HUVECs [2] = assay: VEGF-induced tube formation assay; assay type: cell-based, human; conditions: VEGF 50 ng/mL, compound 1 μg/mL
Method: For analyzing of the antagonistic response to VEGF, tube formation, scratch wound migration, and cell proliferation assays were performed after the exposure of HUVECs to 50 ng/mL VEGF-A (R&D Systems, Minneapolis, MN), which induced a significant angiogenic response. For the cell proliferation assays, cells were incubated overnight in endothelial basal media (EBM; Lonza, Walkersville, MD, USA) containing 0.5% FBS or supplemented with VEGF-A and/or VEGF inhibitors. The cells were washed with PBS and counted in 4 random microscope fields. The tube formation assay was performed by seeding cells on Matrigel-coated plates (BD Bioscience, Bedford, MA, USA) and incubating in EBM containing 0.5% FBS or supplemented with VEGF-A and/or VEGF inhibitors. After overnight incubation, tubule networks were quantified by measuring the tubule length in 4 random microscope fields. For the analysis of scratch wound migration, confluent cell monolayers grown on 6-well plates were scratched using a micropipette tip. […] Cell migration was observed by optical microscopy and quantified by measuring the number of cells that had migrated from the wound edges.
In (A) and (B), the number of cells was expressed as the fold change with respect to the number of cells seeded at day 0. […]

CaMKIV (h) = target: T15, CaMKIV (h) (Homo sapiens, UniProt Q16566); assay: Kinase profile, CaMKIV; assay type: biochemical; conditions: mean ± S.D.
T15 construct: purchased Millipore (now Eurofins) KinaseProfiler / IC50 Profiler
T15 sequence (Q16566 whole entry): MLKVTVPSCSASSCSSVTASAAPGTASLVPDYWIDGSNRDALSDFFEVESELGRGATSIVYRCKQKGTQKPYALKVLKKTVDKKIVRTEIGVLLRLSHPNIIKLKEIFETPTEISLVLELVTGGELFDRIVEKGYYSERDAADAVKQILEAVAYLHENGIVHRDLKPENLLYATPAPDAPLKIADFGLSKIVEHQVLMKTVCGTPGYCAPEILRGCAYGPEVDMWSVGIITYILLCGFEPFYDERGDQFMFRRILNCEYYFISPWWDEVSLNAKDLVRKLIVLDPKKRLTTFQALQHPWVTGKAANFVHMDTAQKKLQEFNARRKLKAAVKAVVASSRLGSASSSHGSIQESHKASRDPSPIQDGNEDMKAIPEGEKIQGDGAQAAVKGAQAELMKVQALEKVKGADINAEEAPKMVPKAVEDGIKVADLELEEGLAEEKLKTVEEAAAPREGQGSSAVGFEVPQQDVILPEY
Method: as §1

EGFR (L858R) = target: T16, EGFR (L858R) (Homo sapiens, UniProt P00533, L858R); assay: In vitro kinase assay, EGFR (L858R); assay type: biochemical
T16 construct: purchased Millipore UK Ltd., Dundee, UK (now Eurofins Scientific); KinaseProfiler / IC50 Profiler service
T16 sequence (P00533 25-1210 L858R): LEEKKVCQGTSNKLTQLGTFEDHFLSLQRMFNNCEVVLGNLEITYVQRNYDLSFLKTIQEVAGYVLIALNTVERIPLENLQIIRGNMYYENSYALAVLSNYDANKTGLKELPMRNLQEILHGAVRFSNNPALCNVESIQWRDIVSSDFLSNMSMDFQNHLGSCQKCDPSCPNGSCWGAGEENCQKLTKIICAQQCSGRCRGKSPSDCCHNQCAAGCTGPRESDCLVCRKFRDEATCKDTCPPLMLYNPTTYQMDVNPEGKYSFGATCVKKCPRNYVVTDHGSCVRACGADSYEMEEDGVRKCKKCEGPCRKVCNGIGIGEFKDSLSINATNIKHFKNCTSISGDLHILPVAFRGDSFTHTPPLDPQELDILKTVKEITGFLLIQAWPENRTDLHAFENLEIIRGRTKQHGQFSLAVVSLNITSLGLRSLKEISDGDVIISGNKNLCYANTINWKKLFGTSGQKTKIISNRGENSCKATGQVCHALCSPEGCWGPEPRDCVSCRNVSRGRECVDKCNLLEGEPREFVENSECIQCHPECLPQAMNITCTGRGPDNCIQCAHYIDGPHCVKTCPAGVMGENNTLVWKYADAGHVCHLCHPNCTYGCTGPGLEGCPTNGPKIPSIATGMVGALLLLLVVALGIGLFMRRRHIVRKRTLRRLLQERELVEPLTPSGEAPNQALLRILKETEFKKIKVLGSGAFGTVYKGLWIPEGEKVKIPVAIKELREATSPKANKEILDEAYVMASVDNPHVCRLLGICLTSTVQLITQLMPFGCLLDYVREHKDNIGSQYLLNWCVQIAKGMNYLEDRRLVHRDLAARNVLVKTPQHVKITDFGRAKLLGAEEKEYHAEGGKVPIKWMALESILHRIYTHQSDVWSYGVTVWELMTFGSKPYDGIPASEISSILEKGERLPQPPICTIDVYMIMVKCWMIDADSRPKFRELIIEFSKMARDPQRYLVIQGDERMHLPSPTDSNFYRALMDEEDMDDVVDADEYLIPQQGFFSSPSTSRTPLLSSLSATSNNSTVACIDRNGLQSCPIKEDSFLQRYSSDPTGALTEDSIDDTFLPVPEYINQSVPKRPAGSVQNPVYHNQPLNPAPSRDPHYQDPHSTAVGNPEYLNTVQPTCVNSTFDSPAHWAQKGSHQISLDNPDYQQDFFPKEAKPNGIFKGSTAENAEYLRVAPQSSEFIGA
Method: as §1

## Cc1ccc(Nc2nccc(N(C)c3ccc4[nH]ccc4c3)n2)cc1S(N)(=O)=O [MKP101]
HUVECs [1]
  Effect on VEGF-induced increase in endothelial proliferation: significantly inhibited
PKCβII (h)
  inhibition at 1 µM: 8 ± 3%
cKit; 1 μM, mean ± S.D., read-out: % inhibition at 1 μM, cKit(h)
  inhibition at 1 µM: 99%
cKit; in vitro kinase assay
  IC50: 108 nM
PKG1β (h)
  inhibition at 1 µM: 7 ± 1%
PKBβ (h)
  inhibition at 1 µM: 14 ± 4%
VEGFR-3; 1 μM, mean ± S.D., read-out: % inhibition at 1 μM, VEGFR-3 (h)
  inhibition at 1 µM: 98%
VEGFR-3; in vitro kinase assay
  IC50: 2 nM
PKCα (h)
  inhibition at 1 µM: 10 ± 1%
CDK7/cyclin H/MAT1 (h)
  inhibition at 1 µM: 16 ± 5%
IR (h)
  inhibition at 1 µM: 14 ± 3%
AMPKα1 (h)
  inhibition at 1 µM: 0%
VEGFR-2; 1 μM, mean ± S.D., read-out: % inhibition at 1 μM, VEGFR-2 (h)
  inhibition at 1 µM: 94 ± 2%
VEGFR-2; in vitro kinase assay
  IC50: 32 nM
PKG1α (h)
  inhibition at 1 µM: 0%
PKCε (h)
  inhibition at 1 µM: 2 ± 3%
PKCβI (h)
  inhibition at 1 µM: 7 ± 5%
PDGFRα; 1 μM, mean ± S.D., read-out: % inhibition at 1 μM, PDGFRα (h)
  inhibition at 1 µM: 93%
PDGFRα; in vitro kinase assay
  IC50: 162 nM
HUVECs [2]
  Effect on VEGF-induced increase in tube formation: significantly inhibited
CaMKIV (h)
  inhibition at 1 µM: 0%
EGFR (L858R); 1 μM, mean ± S.D., read-out: % inhibition at 1 μM, EGFR(L858R)(h)
  inhibition at 1 µM: 96 ± 1%
EGFR (L858R); in vitro kinase assay, mean values
  IC50: 17 nM
